These results are taken from paper PMC5148682 (European journal of medicinal chemistry, 2016).

Where only a bound is given, the exact number is not on record here.

The target of one assay is E. coli topoisomerase I (Escherichia coli, UniProt P06612). The assay can be described thus: E. coli topoisomerase I relaxation activity inhibition assay. It is filed as biochemical.
The target in a further assay is T1, Human topoisomerase I (Homo sapiens, UniProt P11387).
T1 sequence (P11387 1-765): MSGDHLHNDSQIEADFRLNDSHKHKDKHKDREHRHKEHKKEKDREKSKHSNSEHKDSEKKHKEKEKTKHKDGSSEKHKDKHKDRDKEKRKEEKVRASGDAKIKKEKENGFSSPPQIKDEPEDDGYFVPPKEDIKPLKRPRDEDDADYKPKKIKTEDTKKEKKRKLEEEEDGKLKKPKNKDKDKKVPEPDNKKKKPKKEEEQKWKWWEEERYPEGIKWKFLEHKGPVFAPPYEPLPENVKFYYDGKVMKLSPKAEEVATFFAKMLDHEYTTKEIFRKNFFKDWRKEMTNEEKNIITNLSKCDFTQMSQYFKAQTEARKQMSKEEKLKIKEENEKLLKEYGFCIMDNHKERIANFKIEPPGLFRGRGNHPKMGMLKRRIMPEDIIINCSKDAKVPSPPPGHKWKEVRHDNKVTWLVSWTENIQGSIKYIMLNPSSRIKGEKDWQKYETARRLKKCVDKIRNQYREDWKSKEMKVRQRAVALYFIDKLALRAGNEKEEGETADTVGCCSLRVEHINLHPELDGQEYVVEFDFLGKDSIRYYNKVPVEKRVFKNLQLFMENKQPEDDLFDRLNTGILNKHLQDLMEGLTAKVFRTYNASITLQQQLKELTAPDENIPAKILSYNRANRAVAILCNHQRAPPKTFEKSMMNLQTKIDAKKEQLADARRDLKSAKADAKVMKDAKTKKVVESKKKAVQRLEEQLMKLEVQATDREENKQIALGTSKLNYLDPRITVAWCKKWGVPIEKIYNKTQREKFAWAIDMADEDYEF
Nature of the assay: Human topoisomerase I relaxation inhibition assay. It is filed as biochemical.

The test system of the next assay is M tuberculosis (H37Rv). Nature of the assay: MIC by modified microplate Alamar blue assay. It is filed as cell-based. For orientation: The colour change of resazurin is a common sign of viable cells or microbes.
The next assay concerns E. coli (MG1655) WT. Nature of the assay: MIC by broth microdilution, wild-type E. coli. To be noted: Escherichia coli, MG1655, read-out: Whole cell based antibacterial activity (MIC, µM) E. coli (MG1655) WT.

Sequence of E. coli topoisomerase I (P06612 whole entry): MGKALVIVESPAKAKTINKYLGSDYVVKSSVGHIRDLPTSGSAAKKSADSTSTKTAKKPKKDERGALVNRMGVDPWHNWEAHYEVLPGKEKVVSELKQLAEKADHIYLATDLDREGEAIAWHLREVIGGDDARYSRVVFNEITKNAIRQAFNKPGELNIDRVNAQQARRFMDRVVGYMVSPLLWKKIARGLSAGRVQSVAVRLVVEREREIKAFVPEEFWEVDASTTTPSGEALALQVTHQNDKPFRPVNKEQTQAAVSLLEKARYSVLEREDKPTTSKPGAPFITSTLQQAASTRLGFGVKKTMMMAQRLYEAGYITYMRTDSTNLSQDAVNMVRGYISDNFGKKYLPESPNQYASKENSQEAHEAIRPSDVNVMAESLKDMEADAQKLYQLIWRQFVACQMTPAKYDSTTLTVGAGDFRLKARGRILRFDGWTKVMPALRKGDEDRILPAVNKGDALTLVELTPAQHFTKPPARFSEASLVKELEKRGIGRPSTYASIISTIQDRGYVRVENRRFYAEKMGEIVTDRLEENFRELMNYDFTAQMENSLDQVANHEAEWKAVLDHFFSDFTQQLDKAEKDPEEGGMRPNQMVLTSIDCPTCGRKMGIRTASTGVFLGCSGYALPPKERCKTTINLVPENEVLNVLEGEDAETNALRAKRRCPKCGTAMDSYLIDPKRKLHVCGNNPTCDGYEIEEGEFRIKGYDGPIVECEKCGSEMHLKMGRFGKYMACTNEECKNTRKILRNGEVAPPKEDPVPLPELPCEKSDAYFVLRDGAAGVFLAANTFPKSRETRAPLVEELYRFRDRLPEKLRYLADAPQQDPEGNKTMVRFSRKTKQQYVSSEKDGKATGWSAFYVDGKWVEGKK

The term IC50 denotes the concentration needed to halve the response being measured. At E. coli topoisomerase I (pIC50, experimental, pIC50 = – logIC50, E. coli topoisomerase I), `CCOC(=O)c1cn2c3c(c(F)c(F)cc3c1=O)Oc1cc(C(F)(F)F)ccc1-2` [Compound 6c, Ethyl 5,6-difluoro-3-oxo-9-(trifluoromethyl)-3H–pyrido[3,2,1-kl]phenoxazine-2-carboxylate] came in with an IC50 above 125 µM.

On E. coli topoisomerase I (IC50 (µM), E. coli topoisomerase I, value as used in the CoMFA dataset (Table 2)), `O=C(O)c1cn2c3c(c(F)c(F)cc3c1=O)Oc1cc(C(F)(F)F)ccc1-2` [Compound 7c, 5,6-Difluoro-3-oxo-9-(trifluoromethyl)-3H–pyrido[3,2,1-kl]phenoxazine-2-carboxylic acid] yielded an IC50 above 125 µM.

On to `CC(=O)c1ccc2c(c1)Oc1c(F)c(F)cc3c(=O)c(C(=O)O)cn-2c13` [Compound 7d, 9-Acetyl-5,6-difluoro-3-oxo-3H–pyrido[3,2,1-kl] phenoxazine-2-carboxylic acid], for which, on E. coli topoisomerase I, the “fold less active than 1 against E. coli topoisomerase I” value is on record as 8–16 fold.

For the compound `O=C(O)c1cn2c3c(c(F)c(F)cc3c1=O)Oc1cc([N+](=O)[O-])c(Cl)cc1-2` [Compound 7e, 10-Chloro-5,6-difluoro-9-nitro-3-oxo-3H–pyrido[3,2,1-kl]phenoxazine-2-carboxylic acid], the “fold less active than 1 against E. coli topoisomerase I” value at E. coli topoisomerase I was 8–16 fold.

Regarding `Nc1ccc2c(c1)Oc1c(NCCN3CCOCC3)c(F)cc3c(=O)c(C(=O)O)cn-2c13` [Compound 11h, 9-Amino-5-fluoro-6-((2-morpholinoethyl)amino)-3-oxo-3H–pyrido[3,2,1-kl]phenoxazine-2-carboxylic acid], at Human topoisomerase I, the IC50 is 7.8 to 15.6 µM.

In general, MIC refers to the least concentration at which growth counts as inhibited. In the case of `Nc1ccc2c(c1)Oc1c(N3CC[C@H](N)C3)c(F)cc3c(=O)c(C(=O)O)cn-2c13` [Compound 17a, (S)-9-amino-6-(3-aminopyrrolidin-1-yl)-5-fluoro-3-oxo-3H–pyrido[3,2,1-kl]phenoxazine-2-carboxylic acid], in the assay on M tuberculosis (H37Rv) (MABA), the “Whole cell based antibacterial activity (MIC, µM) M tuberculosis (H37Rv)” value is recorded as above 63.1 µM. In addition, the MIC with M tuberculosis (H37Rv) (Mycobacterium tuberculosis, H37RV, read-out: Whole cell based antibacterial activity (MIC, µM) M tuberculosis (H37Rv)) is above 63.1 µM.

Consider `Nc1ccc2c(c1)Oc1c(N3CC[C@@H](N)C3)c(F)cc3c(=O)c(C(=O)O)cn-2c13` [Compound 17b, (R)-9-amino-6-(3-aminopyrrolidin-1-yl)-5-fluoro-3-oxo-3H–pyrido[3,2,1-kl]phenoxazine-2-carboxylic acid], for which the MIC in the assay with E. coli (MG1655) WT was above 200 µM.
